Experimental data from patent US20130165419A1, “COMBINATION ANTI-INFLAMMATORY OPHTHALMIC COMPOSITIONS” (INSITE VISION INCORPORATED, priority 2011, published 2013).

Assay: Release in the rabbit eye, measured by drug contained in the aqueous humor
Format: in vivo
Settings: released from the gel of the ophthalmically acceptable vehicle
Protocol: The viscous gels that result upon administration of the aqueous suspensions of this invention to the eye have residence times in the eye ranging from about 2 to about 12 hours, e.g., from about 3 to about 6 hours. The active ingredients contained in these ophthalmically acceptable vehicles are released from the gels at rates that depend on such factors as the active ingredient itself and its physical form, the extent of drug loading and the pH of the system, as well as on any drug delivery adjuvants, such as ion exchange resins compatible with the ocular surface, which can also be present.

## CC(=O)[C@@]1(O)CC[C@H]2[C@@H]3C[C@H](C)C4=CC(=O)C=C[C@]4(C)[C@@]3(F)[C@@H](O)C[C@@]21C [fluorometholone]
  release rates in the rabbit eye, as measured by fluorometholone contained in the aqueous humor: in excess of four hours
